Results from patent US10407422B2, “Triazolopyridine inhibitors of myeloperoxidase” (priority 2015, dated 2019).

What was measured:
myeloperoxidase (MPO) [1] = target: T1, myeloperoxidase (MPO) (Homo sapiens (Human), UniProt P05164); test: MPO peroxidation assay (Amplex Red assay); type: biochemical; conditions: potency range class
Procedure, shortened: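 Human MPO at 200 pM with 40 nM H2O2 preincubated 10 min at room temperature with inhibitor in 100 mM KPi pH 7.4. Reaction started with Amplex Red mixture (200 μM Amplex Red, 10 mM H2O2); resorufin fluorescence (Ex 535, Em 590 nm) read kinetically for 15 min. IC50 fitted from slopes over 180-540 s.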

myeloperoxidase (MPO) [2] = target: T1, myeloperoxidase (MPO); test: MPO chlorination assay (APF assay); type: biochemical; conditions: potency range class
Procedure, shortened: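 Human MPO (200 pM) preincubated 10 min at room temperature with inhibitor and 120 mM NaCl in 100 mM KPi pH 7.4. Reaction started with APF plus 10 μM H2O2, and hypochlorite-generated fluorescein read kinetically (ex 485/em 535 nm) for 3 min. IC50 from linear-phase slopes fitted to a four-parameter equation.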

T1 sequence (P05164 49-745): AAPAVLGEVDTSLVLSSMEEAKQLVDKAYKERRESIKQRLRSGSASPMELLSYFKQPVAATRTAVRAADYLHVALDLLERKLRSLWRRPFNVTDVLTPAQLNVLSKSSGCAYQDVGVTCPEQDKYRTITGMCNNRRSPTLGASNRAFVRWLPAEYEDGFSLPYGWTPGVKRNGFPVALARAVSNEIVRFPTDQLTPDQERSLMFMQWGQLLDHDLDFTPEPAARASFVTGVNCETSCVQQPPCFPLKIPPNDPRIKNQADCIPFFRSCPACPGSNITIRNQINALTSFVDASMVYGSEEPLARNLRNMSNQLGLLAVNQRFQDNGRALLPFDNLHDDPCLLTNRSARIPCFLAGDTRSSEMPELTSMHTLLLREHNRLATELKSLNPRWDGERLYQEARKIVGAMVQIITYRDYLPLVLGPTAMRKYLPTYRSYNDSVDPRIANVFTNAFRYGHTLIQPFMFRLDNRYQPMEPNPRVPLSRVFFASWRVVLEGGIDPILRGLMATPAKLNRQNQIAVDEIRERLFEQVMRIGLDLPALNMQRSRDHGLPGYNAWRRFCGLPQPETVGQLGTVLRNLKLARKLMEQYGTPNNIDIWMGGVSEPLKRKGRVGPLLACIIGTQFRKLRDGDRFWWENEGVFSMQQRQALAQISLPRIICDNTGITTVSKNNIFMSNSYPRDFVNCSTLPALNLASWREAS

Structure (SMILES)	IC50 (myeloperoxidase (MPO) [1])	IC50 (myeloperoxidase (MPO) [2])
CC(C)(C)[Si](C)(C)OCC(c1ccccc1)n1cc(Cc2cc(N)nc3[nH]nnc23)cn1 (centres unmarked) [Example 144]	0.101 to 0.999 µM	0.101 to 0.999 µM
Nc1cc(Cc2cnn(Cc3cc(Cl)cc(-c4ccccc4)c3)c2)c2nn[nH]c2n1 [Example 276, 7-({1-[(3-Chloro-5-phenylphenyl)methyl]-1H-pyrazol-4-yl}methyl)-3H-[1,2,3]triazolo[4,5-b]pyridin-5-amine]	0.101 to 0.999 µM	0.101 to 0.999 µM
Nc1cc(Cn2nnc3cc(Cc4ccccc4)ccc32)c2nn[nH]c2n1 [Example 171, 7-[(5-Benzyl-1H-1,2,3-benzotriazol-1-yl)methyl]-3H-[1,2,3]triazolo[4,5-b]pyridin-5-amine]	0.101 to 0.999 µM	0.101 to 0.999 µM
NCCN1Cc2ccc(Cn3cc(Cc4cc(N)nc5[nH]nnc45)cn3)cc2C1=O [Example 258, 6-{[4-({5-Amino-3H-[1,2,3]triazolo[4,5-b]pyridin-7-yl}methyl)-1H-pyrazol-1-yl]methyl}-2-(2-aminoethyl)-2,3-dihydro-1H-isoindol-1-one]	0.101 to 0.999 µM	0.101 to 0.999 µM
Nc1cc(Cc2cnn(Cc3cccc(N4CCN[C@@H](COCc5ccccc5)C4)c3)c2)c2nn[nH]c2n1 [Example 220, 7-{[1-({3-[(3R)-3-[(Benzyloxy)methyl]piperazin-1-yl]phenyl}methyl)-1H-pyrazol-4-yl]methyl}-3H-[1,2,3]triazolo[4,5-b]pyridin-5-amine]	0.101 to 0.999 µM	0.001 to 0.1 µM
Nc1cc(Cc2cnn(C(CO)c3ccccc3)c2)c2nn[nH]c2n1 (centres unmarked) [Example 145, 2-(4-((5-Amino-3H-[1,2,3]triazolo[4,5-b]pyridin-7-yl)methyl)-1H-pyrazol-1-yl)-2-phenylethanol]	0.101 to 0.999 µM	0.101 to 0.999 µM
Nc1cc(Cc2cnn(Cc3ccc(F)c(Br)c3)c2)c2nn[nH]c2n1 [Example 277, 7-({1-[(3-Bromo-4-fluorophenyl)methyl]-1H-pyrazol-4-yl}methyl)-3H-[1,2,3]triazolo[4,5-b]pyridin-5-amine]	0.001 to 0.1 µM	0.001 to 0.1 µM
Nc1cc(Cc2cnn(Cc3cccc(C4CCNCC4(F)F)c3)c2)c2nn[nH]c2n1 (centres unmarked) [Example 214, 7-[(1-{[3-(3,3-Difluoropiperidin-4-yl)phenyl]methyl}-1H-pyrazol-4-yl)methyl]-3H-[1,2,3]triazolo[4,5-b]pyridin-5-amine]	0.001 to 0.1 µM	0.101 to 0.999 µM
Cc1nnc(C(C)NC(=O)c2ccc(Cn3cc(Cc4cc(N)nc5[nH]nnc45)cn3)cc2)[nH]1 (centres unmarked) [Example 95, 4-{[4-({5-Amino-3H-[1,2,3]triazolo[4,5-b]pyridin-7-yl}methyl)-1H-pyrazol-1-yl]methyl}-N-[1-(5-methyl-4H-1,2,4-triazol-3-yl)ethyl]benzamide]	0.101 to 0.999 µM	0.101 to 0.999 µM
Nc1cc(Cc2cnn(Cc3cccc(C4CCCN4)c3)c2)c2nn[nH]c2n1 (centres unmarked) [Example 208, 7-[(1-{[3-(Pyrrolidin-2-yl)phenyl]methyl}-1H-pyrazol-4-yl)methyl]-3H-[1,2,3]triazolo[4,5-b]pyridin-5-amine]	0.001 to 0.1 µM	0.001 to 0.1 µM
Nc1cc(Cc2cnn(Cc3cc(-c4ccccc4)on3)c2)c2nn[nH]c2n1 [Example 121, 7-((1-((5-Phenylisoxazol-3-yl)methyl)-1H-pyrazol-4-yl)methyl)-3H-[1,2,3]triazolo[4,5-b]pyridin-5-amine]	0.001 to 0.1 µM	0.101 to 0.999 µM
COc1ccc(-c2ccc(Cn3cc(Cc4cc(N)nc5[nH]nnc45)cn3)cc2)cn1 [Example 105, 7-((1-(4-(6-Methoxypyridin-3-yl)benzyl)-1H-pyrazol-4-yl)methyl)-3H-[1,2,3]triazolo[4,5-b]pyridin-5-amine]	0.101 to 0.999 µM	0.101 to 0.999 µM
Nc1cc(Cc2cnn(Cc3cccc([C@H]4CNC(Cc5ccccc5)C4)c3)c2)c2nn[nH]c2n1 (stereo partly drawn) [Example 203, 7-{[1-({3-[(3S)-5-benzylpyrrolidin-3-yl]phenyl}methyl)-1H-pyrazol-4-yl]methyl}-3H-[1,2,3]triazolo[4,5-b]pyridin-5-amine]	0.001 to 0.1 µM	0.001 to 0.1 µM

Further lines, results first:

IC50 (myeloperoxidase (MPO) [1])	IC50 (myeloperoxidase (MPO) [2])	Structure (SMILES)
0.001 to 0.1 µM	0.101 to 0.999 µM	Nc1cc(Cc2cnn(Cc3cccc(-n4cncn4)c3)c2)c2nn[nH]c2n1 [Example 178, 7-((1-(3-(1H-1,2,4-Triazol-1-yl)benzyl)-1H-pyrazol-4-yl)methyl)-3H-[1,2,3]triazolo[4,5-b]pyridin-5-amine]
0.001 to 0.1 µM	0.001 to 0.1 µM	Nc1cc(Cc2cnn(Cc3cncc(-c4ccccc4)c3)c2)c2nn[nH]c2n1 [Example 125, 7-((1-((5-Phenylpyridin-3-yl)methyl)-1H-pyrazol-4-yl)methyl)-3H-[1,2,3]triazolo[4,5-b]pyridin-5-amine]
0.001 to 0.1 µM	0.101 to 0.999 µM	N#Cc1ccc(Cn2cc(Cc3cc(N)nc4[nH]nnc34)cn2)cc1 [Example 271, 4-{[4-({5-Amino-3H-[1,2,3]triazolo[4,5-b]pyridin-7-yl}methyl)-1H-pyrazol-1-yl]methyl}benzonitrile]
0.001 to 0.1 µM	0.001 to 0.1 µM	Nc1cc(Cc2cnn(Cc3cccc(OC(F)(F)F)c3)c2)c2nn[nH]c2n1 [Example 60, 7-((1-(3-(Trifluoromethoxy)benzyl)-1H-pyrazol-4-yl)methyl)-3H-[1,2,3]triazolo[4,5-b]pyridin-5-amine]
0.001 to 0.1 µM	0.001 to 0.1 µM	CC1C[C@@H](c2cccc(Cn3cc(Cc4cc(N)nc5[nH]nnc45)cn3)c2)CN1 (stereo partly drawn) [Example 202, 7-{[1-({3-[(3S)-5-Methylpyrrolidin-3-yl]phenyl}methyl)-1H-pyrazol-4-yl]methyl}-3H-[1,2,3]triazolo[4,5-b]pyridin-5-amine]
0.001 to 0.1 µM	0.001 to 0.1 µM	Nc1cc(Cc2cnn(Cc3cccc(OCc4ccccc4)c3)c2)c2nn[nH]c2n1 [Example 99, 7-((1-(3-(Benzyloxy)benzyl)-1H-pyrazol-4-yl)methyl)-3H-[1,2,3]triazolo[4,5-b]pyridin-5-amine]
0.001 to 0.1 µM	0.101 to 0.999 µM	Nc1cc(Cc2cnn(CCCC3CCNCC3)c2)c2nn[nH]c2n1 [Example 273, 7-({1-[3-(Piperidin-4-yl)propyl]-1H-pyrazol-4-yl}methyl)-3H-[1,2,3]triazolo[4,5-b]pyridin-5-amine]
0.001 to 0.1 µM	0.001 to 0.1 µM	Nc1cc(Cc2cnn(Cc3ccc4c(c3)CNCC4)c2)c2nn[nH]c2n1 [Example 153, 7-{[1-(1,2,3,4-Tetrahydroisoquinolin-7-ylmethyl)-1H-pyrazol-4-yl]methyl}-3H-[1,2,3]triazolo[4,5-b]pyridin-5-amine]
0.001 to 0.1 µM	0.001 to 0.1 µM	Nc1cc(Cc2cnn(Cc3cccc(Oc4cccc(C5CCCN5)c4)c3)c2)c2nn[nH]c2n1 (centres unmarked) [Example 238, 7-{[1-({3-[3-(Pyrrolidin-2-yl)phenoxy]phenyl}methyl)-1H-pyrazol-4-yl]methyl}-3H-[1,2,3]triazolo[4,5-b]pyridin-5-amine]
0.001 to 0.1 µM	0.001 to 0.1 µM	Nc1cc(Cc2cnn(Cc3cccc(Oc4ccccc4)c3)c2)c2nn[nH]c2n1 [Example 106, 7-((1-(3-Phenoxybenzyl)-1H-pyrazol-4-yl)methyl)-3H-[1,2,3]triazolo[4,5-b]pyridin-5-amine]
0.001 to 0.1 µM	0.101 to 0.999 µM	Nc1cc(Cc2cnn(Cc3cccc(-c4nccs4)c3)c2)c2nn[nH]c2n1 [Example 177, 7-((1-(3-(Thiazol-2-yl)benzyl)-1H-pyrazol-4-yl)methyl)-3H-[1,2,3]triazolo[4,5-b]pyridin-5-amine]
0.001 to 0.1 µM	0.001 to 0.1 µM	Nc1cc(Cc2cnn(Cc3cccc(Cc4ccccc4)c3)c2)c2nn[nH]c2n1 [Example 67, 7-((1-(3-Benzylbenzyl)-1H-pyrazol-4-yl)methyl)-3H-[1,2,3]triazolo[4,5-b]pyridin-5-amine]
0.001 to 0.1 µM	0.101 to 0.999 µM	CCn1c(Cn2cc(Cc3cc(N)nc4[nH]nnc34)cn2)nc2ccccc21 [Example 138, 7-((1-((1-Ethyl-1H-benzo[d]imidazol-2-yl)methyl)-1H-pyrazol-4-yl)methyl)-3H-[1,2,3]triazolo[4,5-b]pyridin-5-amine]
0.001 to 0.1 µM	0.001 to 0.1 µM	Nc1cc(Cc2cnn(Cc3cccc(OC[C@@H]4CCCN4)c3)c2)c2nn[nH]c2n1 [Example 242, 7-{[1-({3-[(2S)-Pyrrolidin-2-ylmethoxy]phenyl}methyl)-1H-pyrazol-4-yl]methyl}-3H-[1,2,3]triazolo[4,5-b]pyridin-5-amine]
0.001 to 0.1 µM	0.001 to 0.1 µM	COc1ncc(-c2cccc(Cn3cc(Cc4cc(N)nc5[nH]nnc45)cn3)c2)cn1 [Example 156, 7-[(1-{[3-(2-Methoxypyrimidin-5-yl)phenyl]methyl}-1H-pyrazol-4-yl)methyl]-3H-[1,2,3]triazolo[4,5-b]pyridin-5-amine]
0.001 to 0.1 µM	0.001 to 0.1 µM	Nc1cc(Cc2cnn(Cc3cccc4c3CCCC4)c2)c2nn[nH]c2n1 [Example 135, 7-{[1-(5,6,7,8-Tetrahydronaphthalen-1-ylmethyl)-1H-pyrazol-4-yl]methyl}-3H-[1,2,3]triazolo[4,5-b]pyridin-5-amine]
0.001 to 0.1 µM	0.001 to 0.1 µM	Nc1cc(Cc2cnn(Cc3ccc4[nH]c(=O)ccc4c3)c2)c2nn[nH]c2n1 [Example 132, 6-((4-((5-Amino-3H-[1,2,3]triazolo[4,5-b]pyridin-7-yl)methyl)-1H-pyrazol-1-yl)methyl)quinolin-2(1H)-one]
0.001 to 0.1 µM	0.001 to 0.1 µM	Nc1cc(Cc2cnn(CC3CC(Cc4ccc(F)cc4)CN3)c2)c2nn[nH]c2n1 (centres unmarked) [Example 281, 7-{[1-({4-[(4-Fluorophenyl)methyl]pyrrolidin-2-yl}methyl)-1H-pyrazol-4-yl]methyl}-3H-[1,2,3]triazolo[4,5-b]pyridin-5-amine]
